Data on 38 molecules can be found in patent US20140323418A1, “SELECTIVE KINASE INHIBITORS” (PORTOLA PHARMACEUTICALS, INC., priority 2011, published 2014).

This experiment addresses T1, full length active recombinant SYK enzyme (Homo sapiens, UniProt P43405).
T1 construct: full length active recombinant SYK enzyme (Millipore, Calif.); purchased Millipore
Put plainly: Inhibition of Syk tyrosine phosphorylation activity (LANCE TR-FRET kinase assay). The experiment is classed as biochemical. To be noted: 1 nM SYK, 550 nM substrate, 100 μM ATP, 1 hour room temperature.
As for `CC(C)[C@@H](Nc1ncc(C(N)=O)c(Nc2cccc(-n3nccn3)c2)n1)C1(N)CC1` [Example 138, (R)-4-(3-(2H-1,2,3-triazol-2-yl)phenylamino)-2-(1-(1-aminocyclopropyl)-2-methylpropylamino)pyrimidine-5-carboxamide], the IC50 was in the range of 1 to 10 nM.

For the molecule `CC(=O)N[C@H]1CCCC[C@H]1Nc1ncc(C(N)=O)c(Nc2cccc(-n3nccn3)c2)n1` [Example 196], the IC50 is 100 to 1000 nM. For the molecule `Cc1ccc(Nc2nc(N[C@H](C)C3(N)CC3)ncc2C(N)=O)cc1` [Example 146, (R)-2-(1-(1-aminocyclopropyl)ethylamino)-4-(p-tolylamino)pyrimidine-5-carboxamide], the IC50 lay in the range of 10 to 100 nM.

With `Cc1nsc(Nc2nc(N[C@@H]3CCCC[C@@H]3N)ncc2C(N)=O)c1I` [Example 231, 2-(((1R,2S)-2-aminocyclohexyl)amino)-4-((4-iodo-3-methylisothiazol-5-yl)amino)pyrimidine-5-carboxamide], the IC50 was in the range of 10 to 100 nM. Then `CN(C)c1ncc(C(N)=O)c(Nc2cccc(-n3nccn3)c2)n1` [Example 3, 4-(3-(2H-1,2,3-triazol-2-yl)phenylamino)-2-(dimethylamino)pyrimidine-5-carboxamide], with 100 to 1000 nM; and `NC(=O)c1cnc(N[C@H](C2CC2)C2(N)CC2)nc1Nc1ccc2ncccc2c1` [Example 155, (R)-2-(1-(1-aminocyclopropyl)(cyclopropyl)methylamino)-4-(quinolin-6-ylamino)pyrimidine-5-carboxamide], with 1 to 10 nM. The result for `Cc1cccc(Nc2nc(N[C@H]3CN[C@H](C(=O)N(C)C)C3)ncc2C(N)=O)c1` [Example 219, 2-(((3R,5S)-5-(dimethylcarbamoyl)pyrrolidin-3-yl)amino)-4-(m-tolylamino)pyrimidine-5-carboxamide] reads greater than 1000 nM. `CCn1ccc2c(Nc3nc(NC(C)C)ncc3C(N)=O)cccc21` [Example 115, 4-(1-ethyl-1H-indol-4-ylamino)-2-(isopropylamino)pyrimidine-5-carboxamide]: the IC50 lay within 100 to 1000 nM. On to `NC(=O)c1cnc(N[C@@H]2CCCC(F)(F)[C@@H]2N)nc1Nc1cccc(-c2ncccn2)c1` [Example 26, 2-(((1R,2R)-2-amino-3,3-difluorocyclohexyl)amino)-4-((3-(pyrimidin-2-yl)phenyl)amino)pyrimidine-5-carboxamide], for which the half-inhibitory concentration (IC50) lay in the range of 100 to 1000 nM. As for `NC(=O)c1cnc(N[C@H](C2CC2)C2(N)CC2)nc1Nc1cccc(-n2cncn2)c1` [Example 163, (R)-4-(3-(1H-1,2,4-triazol-1-yl)phenylamino)-2-(1-(1-aminocyclopropyl)(cyclopropyl)methylamino)pyrimidine-5-carboxamide], the IC50 fell in the range of 1 to 10 nM. Consider `COC(=O)C(C)(C)c1cccc(Nc2nc(N[C@@H]3CCCC[C@@H]3N)ncc2C(N)=O)c1` [Example 201], for which the IC50 lay in the range of 100 to 1000 nM. For `CC[C@@H](Nc1ncc(C(N)=O)c(Nc2cnc3ccccc3c2)n1)C(N)=O` [Example 68, (R)-2-(1-amino-1-oxobutan-2-ylamino)-4-(quinolin-3-ylamino)pyrimidine-5-carboxamide], the IC50 lay in the range of 10 to 100 nM. On to `NC(=O)c1cnc(N[C@@H]2CCCC[C@@H]2N)nc1Nc1cccc(Oc2nc3ccccc3s2)c1` [Example 204], for which the IC50 lay in the range of 10 to 100 nM. As for `CC(C)C[C@@H](Nc1ncc(C(N)=O)c(Nc2cccc(-n3cccn3)c2)n1)C1(N)CC1` [Example 139, (R)-4-(3-(1H-pyrazol-1-yl)phenylamino)-2-(1-(1-aminocyclopropyl)-3-methylbutylamino)pyrimidine-5-carboxamide], the IC50 is 1 to 10 nM.

Turning to `NC(=O)c1cnc(Nc2ccccc2)nc1NC1CCC(N)CC1` (centres unmarked) [Example 183, 4-(4-aminocyclohexylamino)-2-(phenylamino)pyrimidine-5-carboxamide], the IC50 lay in the range of 10 to 100 nM. The result for `NC(=O)c1cnc(N[C@@H]2CCCC[C@@H]2N)nc1Nc1ccc(Br)c(-n2nccn2)c1` [Example 20, 2-((1R,2S)-2-aminocyclohexylamino)-4-(4-bromo-3-(2H-1,2,3-triazol-2-yl)phenylamino)pyrimidine-5-carboxamide] reads 10 to 100 nM; that for `Cn1ccc2c(Nc3nc(NC[C@@H](N)CC(F)F)ncc3C(N)=O)cccc21` [Example 85, (S)-2-(2-amino-4,4-difluorobutylamino)-4-(1-methyl-1H-indol-4-ylamino)pyrimidine-5-carboxamide], 1 to 10 nM. The result for `N#CCN1CC[C@@H](Nc2ncc(C(N)=O)c(Nc3cccc(-n4nccn4)c3)n2)C1` [Example 224] reads 100 to 1000 nM. Take `Cn1ccc2c(Nc3nc(NC4(C#N)CC4)ncc3C(N)=O)cccc21` [Example 109, 2-(1-cyanocyclopropylamino)-4-(1-methyl-1H-indol-4-ylamino)pyrimidine-5-carboxamide]: the IC50 lay within 100 to 1000 nM. Consider `Cc1ccc(Nc2nc(N[C@H]3[C@@H](N)CCCC3(F)F)ncc2C(N)=O)cc1` [Example 38, 2-(((1S,6S)-6-amino-2,2-difluorocyclohexyl)amino)-4-(p-tolylamino)pyrimidine-5-carboxamide], for which the IC50 lay in the range of 10 to 100 nM. `NC(=O)c1cnc(N[C@H](C2CC2)C2(N)CC2)nc1Nc1ccc2ncsc2c1` [Example 167, (R)-2-(1-(1-aminocyclopropyl)(cyclopropyl)methylamino)-4-(benzo[d]thiazol-6-ylamino)pyrimidine-5-carboxamide]: the IC50 lay in the range of 1 to 10 nM.

Take `NC(=O)c1cnc(N[C@@H](C2CC2)C2(N)CC2)nc1Nc1cccc(-c2ncccn2)c1` [Example 134, (S)-2-(1-(1-aminocyclopropyl)(cyclopropyl)methylamino)-4-(3-(pyrimidin-2-yl)phenylamino)pyrimidine-5-carboxamide]: the IC50 is 100 to 1000 nM. Then `NC(=O)c1cnc(N[C@H]2[C@@H](N)CCCC2(F)F)nc1Nc1cccc(-n2cccn2)c1` [Example 34, 4-((3-(1H-pyrazol-1-yl)phenyl)amino)-2-(((1S,6S)-6-amino-2,2-difluorocyclohexyl)amino)pyrimidine-5-carboxamide], with 1 to 10 nM; and `NC(=O)c1cnc(N[C@H](CC2CC2)C(N)=O)nc1Nc1cnc2ccccc2c1` [Example 74, (R)-2-(1-amino-3-cyclopropyl-1-oxopropan-2-ylamino)-4-(quinolin-3-ylamino)pyrimidine-5-carboxamide], with 10 to 100 nM. As for `NC(=O)c1cnc(N[C@@H]2CCCC[C@@H]2N)nc1Nc1ccc2ccncc2c1` [Example 73, 2-((1R,2S)-2-aminocyclohexylamino)-4-(isoquinolin-7-ylamino)pyrimidine-5-carboxamide], the IC50 lay in the range of 10 to 100 nM. Turning to `CC(C)[C@@H](Nc1ncc(C(N)=O)c(Nc2cnc3ccccc3c2)n1)C1(N)CC1` [Example 158, (R)-2-(1-(1-aminocyclopropyl)-2-methylpropylamino)-4-(quinolin-3-ylamino)pyrimidine-5-carboxamide], the IC50 was in the range of 1 to 10 nM. The result for `Cc1cccc(Nc2nc(N[C@@H]3CC[C@@H](C(=O)N(C)C)C[C@@H]3N)ncc2C(N)=O)c1` (racemic) [Example 190, 2-((1R,2S,4R)-2-amino-4-(dimethylcarbamoyl)cyclohexylamino)-4-(m-tolylamino)pyrimidine-5-carboxamide] reads 1 to 10 nM; that for `Cn1ncc2c(Nc3nc(N[C@H](C4CC4)C4(N)CC4)ncc3C(N)=O)cccc21` [Example 162, (R)-2-(1-(1-aminocyclopropyl)(cyclopropyl)methylamino)-4-(1-methyl-1H-indazol-4-ylamino)pyrimidine-5-carboxamide], 1 to 10 nM; that for `NC(=O)c1cnc(N[C@@H]2CCCC[C@@H]2N)nc1Nc1ccc2cccnc2c1` [Example 75, 2-((1R,2S)-2-aminocyclohexylamino)-4-(quinolin-7-ylamino)pyrimidine-5-carboxamide], 10 to 100 nM. With `N#CCN[C@H]1CCCC[C@H]1Nc1ncc(C(N)=O)c(Nc2cccc(-n3nccn3)c2)n1` [Example 11, 4-(3-(2H-1,2,3-triazol-2-yl)phenylamino)-2-((1R,2S)-2-(cyanomethylamino)cyclohexylamino)pyrimidine-5-carboxamide], the IC50 lay within 100 to 1000 nM. For the molecule `Cc1cccc(Nc2nc(N[C@H](C(C)C)C3(N)CC3)ncc2C(N)=O)c1` [Example 144, (R)-2-(1-(1-aminocyclopropyl)-2-methylpropylamino)-4-(m-tolylamino)pyrimidine-5-carboxamide], the IC50 was in the range of 1 to 10 nM. Then `Cc1cccc(Nc2nc(N[C@@H]3CC[C@@H](C(=O)O)C[C@@H]3N)ncc2C(N)=O)c1` (racemic) [Example 187, (1R,3S,4R)-3-amino-4-(5-carbamoyl-4-(m-tolylamino)pyrimidin-2-ylamino)cyclohexanecarboxylic acid], with 1 to 10 nM. As for `CC(C)(C(=O)O)c1cccc(Nc2nc(N[C@@H]3CCCC[C@@H]3N)ncc2C(N)=O)c1` [Example 203], the IC50 was 100 to 1000 nM. Then `CCn1ccc2c(Nc3nc(N[C@@H]4CCCC(F)(F)[C@@H]4N)ncc3C(N)=O)cccc21` [Example 92, 2-((1R,2R)-2-amino-3,3-difluorocyclohexylamino)-4-(1-ethyl-1H-indol-4-ylamino)pyrimidine-5-carboxamide], with 10 to 100 nM; and `Cc1cccc(Nc2nc(NCC(N)C(C)(F)F)ncc2C(N)=O)c1` (centres unmarked) [Example 105, 4-(m-toluidino)-2-(2-amino-3,3-difluorobutylamino)pyrimidine-5-carboxamide], with 100 to 1000 nM. `NC(=O)c1cnc(N[C@@H]2CCNC2)nc1Nc1cccc(-c2ncccn2)c1` [Example 222]: the IC50 fell in the range of 10 to 100 nM. In the case of `COc1cccc(Nc2nc(N[C@H](CC3CC3)C(N)=O)ncc2C(N)=O)c1` [Example 63, (R)-2-((1-amino-3-cyclopropyl-1-oxopropan-2-yl)amino)-4-((3-methoxyphenyl)amino)pyrimidine-5-carboxamide], the IC50 was in the range of 100 to 1000 nM. As to `NC(=O)c1cnc(N[C@@H]2CCC[C@H](F)[C@@H]2N)nc1Nc1ccc2ncccc2c1` [Example 237, 2-((1R,2R,3S)-2-amino-3-fluorocyclohexylamino)-4-(quinolin-6-ylamino)pyrimidine-5-carboxamide], the IC50 was 10 to 100 nM.

As usually defined, the IC50 is the concentration at which inhibition is half-maximal.
